Molecular target: T1, kynurenine-3-hydroxylase (Rattus norvegicus, UniProt O88867)
T1 construct: Rat liver mitochondrial extract was used as enzymatic preparation for this assay; from tissue; host or cells: rat liver mitochondrial extract
Assay: Kynurenine-3-hydroxylase assay in rat liver (radiometric, release of tritiated water, mitochondrial extract)
Format: biochemical
Settings: 37°C, 30 min, 0.025 mM L-kynurenine, read-out: KYN-3-OH inhibition (IC50) Liver
Description: Kynurenine-3-hydroxylase assay in rat liver
The assay for kynurenine 3-hydroxylase was based on enzymatic synthesis of tritiated water during hydroxylation reaction. Radiolabelled water was quantified following selective adsorption of the isotopic substrate and its metabolites with active charcoal.
Rat liver mitochondrial extract was used as enzymatic preparation for this assay.
The assay for kynurenine 3-hydroxylase activity was carried out at 37°C for a time of 30 min. The reaction mixture of a total volume of […] was constituted of 44 mg of suspended extract, 100 mM Tris/Cl buffer pH 8.1, 10 mM EDTA, 100mM KCl, 0.8 mM NADPH, 0.025 mM L-kynurenine, 0.5 mCi L-(3,5-^3H)Kynurenine (10 Ci/mmol) and […] of different concentration of inhibitor solutions. After the incubation the reaction was terminated by the addition of 1 mL of 7.5% (w/v) activated charcoal, vortexed and centrifugated for 7 min.
A […] of supernatant was counted by scintillation spectroscopy in 5 ml of liquid scintillation.

T1 sequence (O88867 whole entry): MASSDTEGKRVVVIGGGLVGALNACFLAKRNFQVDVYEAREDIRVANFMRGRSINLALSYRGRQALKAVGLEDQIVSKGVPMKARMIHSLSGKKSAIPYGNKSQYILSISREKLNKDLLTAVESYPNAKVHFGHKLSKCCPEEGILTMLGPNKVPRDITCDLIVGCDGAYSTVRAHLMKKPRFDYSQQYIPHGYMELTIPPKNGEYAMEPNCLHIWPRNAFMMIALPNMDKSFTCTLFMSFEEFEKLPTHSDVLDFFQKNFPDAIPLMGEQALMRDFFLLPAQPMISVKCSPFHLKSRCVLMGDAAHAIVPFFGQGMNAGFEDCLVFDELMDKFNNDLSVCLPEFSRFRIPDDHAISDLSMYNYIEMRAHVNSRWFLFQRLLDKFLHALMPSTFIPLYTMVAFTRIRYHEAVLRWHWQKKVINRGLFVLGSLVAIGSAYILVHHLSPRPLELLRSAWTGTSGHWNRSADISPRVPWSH

| IC50 | SMILES |
| --- | --- |
| 61 µM | Cc1c[nH]c2c1c(C(=O)O)nc1ccc(Cl)cc12 [FCE 29370, 8-chloro-3-methyl-1H-pyrrolo[3,2-c] quinoline-4-carboxylic acid] |
| 34 µM | O=C(O)c1nc2cc(Cl)ccc2c2[nH]cc(-c3ccccc3)c12 [FCE 29464, 7-chloro-3-phenyl-1H-pyrrolo[3,2-c] quinoline-4-carboxylic acid] |
